Assay results reported in patent US20220362174A1, “Use of R-enantiomer Beta2-agonists for prevent and treatment of pulmonary inflammation and inflammatory remodeling for reduced adverse effects” (priority 2019, published 2022).

Columns and labels:
[1] = test system: macrophages from the peritoneal fluid; assay: LPS-induced proliferation and polarization of macrophages from the peritoneal fluid (sepsis); type: in vivo
Text: Macrophage activation and proliferation was considered to be the key step of initiation and development of sepsis. In one embodiment, LPS (PAMPs from bacteria) induced a proliferation and polarization of macrophages from the peritoneal fluid. […] These inhibitory effects can be blocked by using specific β2-recepter blocker.

[2] = test system: LPS-induced RAW264.7 cells; assay: mRNA expression of TNF-α, IL-1β and MCP-1 by quantitative real-time PCR; type: cell-based; settings: pretreated prior to LPS
Description: Macrophages were treated without or with (R)/(S)-salbutamol for 1 h prior to LPS stimulation and subsequently incubated for 12 h. […] The fluorescence of the oxidized product (2′,7′-dichlorofluorescein, DCF) was assessed using an LSM710 Laser Scanning Confocal Microscope (Carl Zeiss, Jena, Germany). The concentration of NO in the culture supernatant was measured by assaying the concentrations of nitrite (a stable NO breakdown product) using the Griess assay (Beyotime, Shanghai, China), according to the manufacturer's instructions. The intracellular NO level was detected using the NO-sensitive fluorescence probe DAF-FM DA (Sigma, St. Louis, Mo., USA) (24). Cells were labeled with DAF-FM DA (10 μM) at 37° C. for 30 min and were gently washed three times with PBS. Fluorescence was detected using a LSM710 Laser Scanning Confocal Microscope (Scale bars, 100 μm) (Carl Zeiss, Jena, Germany).
To examine the mRNA expression of TNF-α, IL-1β and MCP-1, quantitative real-time PCR was performed. Consistent with the cytokine expression study, the mRNA expression of TNF-α was increased by 2.26-fold in the LPS-induced group compared to the control group (FIG. 8D). The mRNA expression of IL-1β and MCP-1 increased by 12.74-fold (FIG. 8E) and 3.1-fold, respectively, in the LPS-induced group compared to the control group (FIG. 8F).

OVA induced asthma mice = assay: Combination therapy of ipratropium with R- and S-salbutamol: lung histopathology (Masson, PAS); type: in vivo
Description: Left lung tissue was obtained for histopathology and fixed in 10% formalin for 24 h, followed by paraffin-embedded and then were sectioned at 4 μm for routine staining with hematoxylin and eosin (H&E, Solarbio, Beijing, China), or with periodic acid-Schiff (PAS, Solarbio, Beijing, China), or submitted to Masson's trichrome staining (Baso, Zhuhai, China). Images of the stained lung sections were obtained by an Axisplus image-capturing system (Zeiss, Germany) and then a minimum of 3 bronchi (luminal diameter, 150-500 μm) were analyzed per mice for various parameters using an image analyzing computer system (IPP) by pathologists blinded to grouping. Histological score, airway smooth muscle thickness, PAS score (goblet cells hyperplasia), and collagen deposition were evaluated by a semi-quantitative scoring method.
Methods used were similar as mentioned above. Nebulized aerosol of saline, Methacholine 2 mg/ml (low dose) or 10 mg/ml (high dose) were given via inhalation to OVA induced asthma mice.

## CC(C)(C)NC[C@H](O)c1ccc(O)c(CO)c1 [R-salbutamol, (R)-Salbutamol]
[1]; LPS sepsis
  number of macrophages from the peritoneal fluid: significantly reduced toward normal level
[1]; in comparison of sepsis condition
  polarized M1 macrophages or M2 macrophages: significant reduction
[2]; LPS alone 2.26-fold of control
  mRNA level of TNF-α: significantly decreased
[2]; LPS alone 3.1-fold of control
  mRNA level of MCP-1: significantly decreased
[2]; LPS alone 12.74-fold of control
  mRNA level of IL-1β: significantly decreased
OVA induced asthma mice; vs OVA model
  PAS staining: goblet cell hyperplasia, mucus over secretion, airway edema: significant therapeutic benefit
OVA induced asthma mice; vs ova (model) group
  Masson staining: collagen deposition, wall thickness of bronchiole and vascular vessels: significant therapeutic effects
